Test results taken from patent publication US20060094731A1, “New medicament” (priority 2003, published 2006).

Legend:
[1] = test system: patients with type 2 diabetes and nephropathy; conditions: literature studies (N Engl J Med 2001); correlating with reduction in onset of end-stage renal disease, no change in mortality rates; cited from earlier work
[2] = test system: patients with diabetic nephropathy; assay: Double-blind, randomised, placebo-controlled study of 24-hour proteinuria on top of high-dose ARB
Method: The study was double-blind, randomised, and placebo-controlled. […] Patients were included if at the end of the 4-week treatment period with high-dose ARBs, their 24-hour proteinuria was >300 mg/24 h. They were randomised into 3 groups: 20 mg of compound A, 50 mg of compound A, or placebo once daily, on top of the high dose ARB. Treatment duration was 4 weeks. The primary variable was 24-hour proteinuria.
Out of the 23 randomised patients, 7 received compound A 20 mg, 8 received compound A 50 mg and 8 received placebo. The mean age (±SD) was similar for all 3 groups. The HbA1c level at entry was also similar for all 3 groups.

Row | SMILES | effect on proteinuria [1] | decrease in 24-hour proteinuria ([2]; compound A 50 mg once daily, 4 weeks, on top of high-dose ARB, mean ± SD, 8 patients) [g/24 h] | mean decrease in 24-hour proteinuria ([2]; the 2 groups treated with compound A (20 mg and 50 mg), summary statement, called clinically relevant)
1 | CCCCc1nc(Cl)c(CO)n1Cc1ccc(-c2ccccc2-c2nn[nH]n2)cc1 [losartan] | decrease in proteinuria |  | 
2 | COc1ccccc1Oc1c(NS(=O)(=O)c2ccc(C)cn2)nc(-c2ccncc2)nc1OC [compound A] |  | −1.3±1.3 | around 1 g/24 h
3 | CCCCC1=NC2(CCCC2)C(=O)N1Cc1ccc(-c2ccccc2-c2nnn[nH]2)cc1 [irbesartan] | decrease in proteinuria |  | 
